Experiments:
[1] = relative permittivity at various frequencies (dimensionless); settings: 298.2 K; 101.33 kPa; Liquid; Frequency=0.1 MHz
[2] = refractive index (Na D-line) (dimensionless); settings: 298.2 K; 101.33 kPa; Liquid; Standard Abbe refractometry
[3] = 298.2 K; 101 kPa; Liquid; Vibrating tube method
[4] = refractive index (Na D-line) (dimensionless); xn = mol fraction of the nth substance listed; settings: 298.2 K, 101 kPa, Liquid, Standard Abbe refractometry
[5] = relative permittivity at various frequencies (dimensionless); xn = mol fraction of the nth substance listed; settings: 298.2 K, 101.33 kPa, Liquid, Frequency=0.1 MHz, Parallel plate capacitor
[6] = xn = mol fraction of the nth substance listed; settings: 298.2 K, 101 kPa, Liquid, Vibrating tube method

CC(O)CCO (stereo unspecified) [1,3-butanediol]
Settings | mass density [kg/m3] | refractive index | relative permittivity
[1] | – | – | 28.692
[2] | – | 1.4383 | –
[3] | 1001.22 | – | –

CC(O)CCO (stereo unspecified) [1,3-butanediol] + C1COCCO1
Settings | refractive index, [4] | relative permittivity, [5]
x1 = 0.029 | 1.4206 | 2.488
x1 = 0.098 | 1.4217 | 3.231
x1 = 0.2 | 1.4233 | 4.644
x1 = 0.293 | 1.4251 | 6.316
x1 = 0.4 | 1.4265 | 8.425
x1 = 0.491 | 1.4282 | 10.465
x1 = 0.6 | 1.4301 | 13.528
x1 = 0.693 | 1.4319 | 16.725
x1 = 0.8 | 1.4343 | 20.583
x1 = 0.9 | 1.4362 | 24.335

CC(O)CCO (stereo unspecified) [1,3-butanediol] + CCCCC(CC)CO
Settings | mass density, [6] [kg/m3] | refractive index, [4] | relative permittivity, [5]
x1 = 0.1 | 839.88 | 1.4295 | 8.625
x1 = 0.25 | 855.62 | 1.4301 | 10.605
x1 = 0.401 | 875.88 | 1.431 | 13.065
x1 = 0.501 | 891.81 | 1.4318 | 15.056
x1 = 0.6 | 909.96 | 1.4329 | 17.255
x1 = 0.649 | 919.85 | 1.4334 | 18.524
x1 = 0.75 | 939.91 | 1.4346 | 21.039
x1 = 0.9 | 974.72 | 1.4367 | 25.228
x1 = 1 | 1001.22 | 1.4383 | 28.692

OCCCCO [1,4-butanediol]
Settings | mass density [kg/m3] | refractive index | relative permittivity
[1] | – | – | 31.539
[2] | – | 1.4447 | –
[3] | 1013.45 | – | –

OCCCCO [1,4-butanediol] + C1COCCO1
Settings | refractive index, [4] | relative permittivity, [5]
x1 = 0.029 | 1.4207 | 2.525
x1 = 0.098 | 1.422 | 3.353
x1 = 0.2 | 1.4243 | 4.916
x1 = 0.293 | 1.4263 | 6.656
x1 = 0.4 | 1.4288 | 8.798
x1 = 0.491 | 1.4311 | 11.193
x1 = 0.6 | 1.434 | 14.491
x1 = 0.693 | 1.4363 | 17.889
x1 = 0.8 | 1.4392 | 21.914
x1 = 0.9 | 1.4418 | 26.541

OCCCCO [1,4-butanediol] + CCCCC(CC)CO
x1 = 1
Settings | mass density [kg/m3] | refractive index | relative permittivity
[4] | – | 1.4447 | –
[5] | – | – | 31.539
[6] | 1013.45 | – | –

CC(O)C(C)O (stereo unspecified) [2,3-butanediol]
Settings | mass density [kg/m3] | refractive index | relative permittivity
[1] | – | – | 21.282
[2] | – | 1.4348 | –
[3] | 994.31 | – | –

CC(O)C(C)O (stereo unspecified) [2,3-butanediol] + C1COCCO1
Settings | refractive index, [4] | relative permittivity, [5]
x1 = 0.03 | 1.4205 | 2.386
x1 = 0.096 | 1.4212 | 2.798
x1 = 0.19 | 1.4223 | 3.592
x1 = 0.29 | 1.4235 | 4.778
x1 = 0.38 | 1.4249 | 5.985
x1 = 0.488 | 1.4264 | 7.881
x1 = 0.6 | 1.4281 | 10.205
x1 = 0.69 | 1.4294 | 12.277
x1 = 0.82 | 1.4316 | 16.001
x1 = 0.9 | 1.433 | 18.397

CC(O)C(C)O (stereo unspecified) [2,3-butanediol] + CCCCC(CC)CO
x1 = 1
Settings | mass density [kg/m3] | refractive index | relative permittivity
[4] | – | 1.4348 | –
[5] | – | – | 21.282
[6] | 994.31 | – | –

CCCCC(CC)CO (stereo unspecified) [2-ethyl-1-hexanol]
Settings | mass density [kg/m3] | refractive index | relative permittivity
[1] | – | – | 7.611
[2] | – | 1.4293 | –
[3] | 830.62 | – | –

CCCCC(CC)CO (stereo unspecified) [2-ethyl-1-hexanol] + CC(O)C(C)O
Settings | mass density, [6] [kg/m3] | refractive index, [4] | relative permittivity, [5]
x2 = 0 | 830.62 | 1.4293 | 7.611
x2 = 0.1 | 837.79 | 1.4294 | 8.197
x2 = 0.25 | 854.38 | 1.4297 | 9.478
x2 = 0.401 | 874.23 | 1.4301 | 11.075
x2 = 0.499 | 890.64 | 1.4308 | 12.36
x2 = 0.55 | 897.94 | 1.4311 | 13.125
x2 = 0.65 | 916.49 | 1.4318 | 14.659
x2 = 0.75 | 934.5 | 1.4324 | 16.407
x2 = 0.898 | 966.52 | 1.4337 | 19.166

CCCCC(CC)CO (stereo unspecified) [2-ethyl-1-hexanol] + OCCCCO
Settings | mass density, [6] [kg/m3] | refractive index, [4] | relative permittivity, [5]
x2 = 0.099 | 840.72 | 1.4299 | 8.795
x2 = 0.25 | 858.3 | 1.4313 | 11.008
x2 = 0.4 | 881.5 | 1.4329 | 13.706
x2 = 0.5 | 897.59 | 1.4343 | 15.945
x2 = 0.6 | 916.55 | 1.4358 | 18.45
x2 = 0.649 | 926.55 | 1.4368 | 19.741
x2 = 0.749 | 948.41 | 1.439 | 22.751
x2 = 0.9 | 984.92 | 1.4424 | 27.546
